In patent US11572590B2, “Methods for evaluating tumor cell spheroids using 3D microfluidic cell culture device” (Dana-Farber Cancer Institute, Inc., priority 2017, dated 2023):
Where two headings read alike, the source gives them in different places.

Assays:
Assay in all cases: SelectScreen Kinase Profiling, single point inhibition and IC50 for off-target kinases
Format in all cases: biochemical
off-target kinases [1] = target: off-target kinases (Homo sapiens, UniProt O75676); conditions: RPS6KA4 (MSK2), ZLYTE, ATP Km app
off-target kinases (Homo sapiens, UniProt O75676), sequence (O75676 whole entry): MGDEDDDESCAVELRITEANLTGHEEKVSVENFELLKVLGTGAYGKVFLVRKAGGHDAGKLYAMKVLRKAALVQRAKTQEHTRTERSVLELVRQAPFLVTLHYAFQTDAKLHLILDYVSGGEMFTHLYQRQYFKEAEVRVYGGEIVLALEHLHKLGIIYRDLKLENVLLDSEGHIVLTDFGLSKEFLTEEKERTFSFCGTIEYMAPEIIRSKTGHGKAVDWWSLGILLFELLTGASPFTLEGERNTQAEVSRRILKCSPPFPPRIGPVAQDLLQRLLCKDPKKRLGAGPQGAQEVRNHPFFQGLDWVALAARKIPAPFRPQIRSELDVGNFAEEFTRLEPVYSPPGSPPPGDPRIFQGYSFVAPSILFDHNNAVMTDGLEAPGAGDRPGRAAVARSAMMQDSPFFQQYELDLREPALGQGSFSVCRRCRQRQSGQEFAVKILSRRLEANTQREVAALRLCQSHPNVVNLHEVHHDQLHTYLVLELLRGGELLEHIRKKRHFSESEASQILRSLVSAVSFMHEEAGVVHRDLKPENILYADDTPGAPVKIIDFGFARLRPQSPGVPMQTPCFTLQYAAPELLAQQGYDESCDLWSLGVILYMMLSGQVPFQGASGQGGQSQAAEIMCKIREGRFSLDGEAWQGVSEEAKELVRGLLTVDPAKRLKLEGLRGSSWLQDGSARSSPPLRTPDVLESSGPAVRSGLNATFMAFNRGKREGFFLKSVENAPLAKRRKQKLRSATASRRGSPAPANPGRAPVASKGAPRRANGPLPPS

off-target kinases [2] = target: T1, off-target kinases (Homo sapiens, UniProt O15264); conditions: MAPK13 (p38 delta), ZLYTE, ATP Km app
T1 sequence (O15264 1-365): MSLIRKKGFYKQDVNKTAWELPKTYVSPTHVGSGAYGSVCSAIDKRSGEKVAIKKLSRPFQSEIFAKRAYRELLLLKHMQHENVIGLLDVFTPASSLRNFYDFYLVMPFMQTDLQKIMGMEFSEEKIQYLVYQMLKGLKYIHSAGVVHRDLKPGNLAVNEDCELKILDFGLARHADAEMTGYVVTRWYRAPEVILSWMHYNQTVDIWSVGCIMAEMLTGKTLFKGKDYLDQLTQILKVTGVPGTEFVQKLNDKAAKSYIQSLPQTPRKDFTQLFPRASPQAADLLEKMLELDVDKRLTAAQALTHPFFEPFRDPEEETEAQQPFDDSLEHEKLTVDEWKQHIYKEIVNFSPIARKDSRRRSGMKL

off-target kinases [3] = target: T2, off-target kinases (Homo sapiens, UniProt P52564)
T2 sequence (P52564 1-334): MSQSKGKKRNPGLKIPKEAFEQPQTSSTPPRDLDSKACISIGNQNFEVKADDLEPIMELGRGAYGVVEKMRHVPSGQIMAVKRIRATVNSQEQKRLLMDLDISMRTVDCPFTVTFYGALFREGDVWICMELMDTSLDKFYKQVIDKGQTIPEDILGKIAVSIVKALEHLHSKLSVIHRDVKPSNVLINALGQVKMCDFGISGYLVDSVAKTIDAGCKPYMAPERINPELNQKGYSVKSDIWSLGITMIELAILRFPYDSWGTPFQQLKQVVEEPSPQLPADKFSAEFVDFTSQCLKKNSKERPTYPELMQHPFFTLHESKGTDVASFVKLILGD

off-target kinases [4] = target: off-target kinases (Homo sapiens, UniProt P10721, D816V); conditions: KIT D816V, LanthaScreen Binding
off-target kinases (Homo sapiens, UniProt P10721, D816V), sequence (P10721 26-976 D816V): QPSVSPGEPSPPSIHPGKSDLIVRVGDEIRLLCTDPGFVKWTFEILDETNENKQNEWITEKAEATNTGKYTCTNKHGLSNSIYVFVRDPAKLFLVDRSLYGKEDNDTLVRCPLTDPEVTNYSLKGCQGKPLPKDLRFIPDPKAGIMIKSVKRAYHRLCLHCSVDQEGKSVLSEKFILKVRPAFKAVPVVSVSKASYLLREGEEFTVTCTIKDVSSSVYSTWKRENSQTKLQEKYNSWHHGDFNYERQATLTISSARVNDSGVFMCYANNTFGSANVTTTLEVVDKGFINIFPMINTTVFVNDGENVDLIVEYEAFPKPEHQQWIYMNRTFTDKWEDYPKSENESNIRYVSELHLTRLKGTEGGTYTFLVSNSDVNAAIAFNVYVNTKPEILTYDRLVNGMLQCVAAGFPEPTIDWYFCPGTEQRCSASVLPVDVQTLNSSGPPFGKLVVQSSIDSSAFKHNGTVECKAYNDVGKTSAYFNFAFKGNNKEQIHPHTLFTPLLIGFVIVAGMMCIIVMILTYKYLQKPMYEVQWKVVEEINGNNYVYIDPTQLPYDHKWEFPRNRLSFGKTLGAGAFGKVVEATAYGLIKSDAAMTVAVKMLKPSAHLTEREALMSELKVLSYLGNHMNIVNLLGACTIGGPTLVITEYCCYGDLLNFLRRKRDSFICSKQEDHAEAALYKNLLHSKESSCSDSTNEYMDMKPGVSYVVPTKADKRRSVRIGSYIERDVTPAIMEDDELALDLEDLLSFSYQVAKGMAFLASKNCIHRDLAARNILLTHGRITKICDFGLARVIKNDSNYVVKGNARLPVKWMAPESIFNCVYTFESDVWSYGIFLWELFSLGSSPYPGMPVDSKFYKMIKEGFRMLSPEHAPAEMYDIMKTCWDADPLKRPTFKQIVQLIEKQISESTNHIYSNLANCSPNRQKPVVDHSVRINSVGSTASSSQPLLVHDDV

off-target kinases [5] = target: off-target kinases (Homo sapiens, UniProt P48730); conditions: CSNK1D (CK1 delta), ZLYTE, ATP Km app
off-target kinases (Homo sapiens, UniProt P48730), sequence (P48730 whole entry): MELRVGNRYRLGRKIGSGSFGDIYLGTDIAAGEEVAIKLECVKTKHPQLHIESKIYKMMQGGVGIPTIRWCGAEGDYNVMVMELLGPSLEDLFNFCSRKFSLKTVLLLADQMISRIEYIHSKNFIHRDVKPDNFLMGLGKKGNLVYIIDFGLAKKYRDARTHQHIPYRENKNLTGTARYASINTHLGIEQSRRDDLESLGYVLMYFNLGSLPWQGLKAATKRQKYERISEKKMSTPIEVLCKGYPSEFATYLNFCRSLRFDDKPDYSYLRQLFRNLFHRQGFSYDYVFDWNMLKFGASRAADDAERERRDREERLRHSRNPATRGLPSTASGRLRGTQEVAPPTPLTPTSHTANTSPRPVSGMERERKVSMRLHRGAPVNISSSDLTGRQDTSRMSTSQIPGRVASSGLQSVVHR

off-target kinases [6] = target: off-target kinases (Homo sapiens, UniProt Q8N4C8); conditions: MINK1, ATP Km app, ZLYTE
off-target kinases (Homo sapiens, UniProt Q8N4C8), sequence (Q8N4C8 whole entry): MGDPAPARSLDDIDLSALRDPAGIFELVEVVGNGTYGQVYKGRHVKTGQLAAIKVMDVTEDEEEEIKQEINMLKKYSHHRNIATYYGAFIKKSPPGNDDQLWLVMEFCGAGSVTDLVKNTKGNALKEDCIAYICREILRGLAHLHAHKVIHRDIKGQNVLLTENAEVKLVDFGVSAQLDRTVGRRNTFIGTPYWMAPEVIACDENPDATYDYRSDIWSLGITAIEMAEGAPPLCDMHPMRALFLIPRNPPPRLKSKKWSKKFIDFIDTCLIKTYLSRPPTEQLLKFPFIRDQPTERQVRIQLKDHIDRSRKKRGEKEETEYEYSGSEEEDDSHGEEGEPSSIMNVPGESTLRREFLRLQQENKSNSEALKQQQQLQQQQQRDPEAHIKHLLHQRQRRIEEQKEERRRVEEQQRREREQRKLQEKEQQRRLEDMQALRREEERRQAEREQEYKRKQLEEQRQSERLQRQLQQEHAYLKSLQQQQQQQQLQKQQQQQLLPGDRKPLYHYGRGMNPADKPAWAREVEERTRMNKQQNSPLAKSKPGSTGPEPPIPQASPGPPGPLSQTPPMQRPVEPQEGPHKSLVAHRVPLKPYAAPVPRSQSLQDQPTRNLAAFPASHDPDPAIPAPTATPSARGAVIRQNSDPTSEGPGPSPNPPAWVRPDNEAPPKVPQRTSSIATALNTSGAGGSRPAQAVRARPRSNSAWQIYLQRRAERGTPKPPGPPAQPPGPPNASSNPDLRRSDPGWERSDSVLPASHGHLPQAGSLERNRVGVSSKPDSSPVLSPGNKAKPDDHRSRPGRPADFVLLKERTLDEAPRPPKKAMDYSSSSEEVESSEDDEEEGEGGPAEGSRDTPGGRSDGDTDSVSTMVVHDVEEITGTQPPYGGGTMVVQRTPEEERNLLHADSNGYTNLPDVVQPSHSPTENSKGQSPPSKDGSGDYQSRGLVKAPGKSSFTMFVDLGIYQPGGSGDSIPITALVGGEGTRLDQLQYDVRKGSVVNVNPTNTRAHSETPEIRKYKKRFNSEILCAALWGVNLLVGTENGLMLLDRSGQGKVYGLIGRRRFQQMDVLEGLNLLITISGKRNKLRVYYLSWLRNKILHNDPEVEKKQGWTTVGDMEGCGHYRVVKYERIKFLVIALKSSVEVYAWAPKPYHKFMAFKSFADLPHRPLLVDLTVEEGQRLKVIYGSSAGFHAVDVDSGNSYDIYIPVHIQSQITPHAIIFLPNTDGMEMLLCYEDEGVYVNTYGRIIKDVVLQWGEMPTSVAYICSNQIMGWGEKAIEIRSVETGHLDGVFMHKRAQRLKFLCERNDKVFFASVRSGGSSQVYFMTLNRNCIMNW

Structure (SMILES): N#Cc1cc(-c2ncnc(Nc3ccc(N4CCN(C5COC5)CC4)cc3)n2)ccc1OC1CCOCC1 [Compound 1, 5-(4-((4-(4-(oxetan-3-yl)piperazin-1-yl)phenyl)amino)-1,3,5-triazin-2-yl)-2-((tetrahydro-2H-pyran-4-yl)oxy)benzonitrile]
- inhibition (off-target kinases [1]; read-out: % Inhibition 1): 0%
- inhibition (off-target kinases [1]; read-out: % Inhibition 2): 2%
- inhibition (off-target kinases [1]; read-out: % Inhibition Avg): 1%
- inhibition (off-target kinases [2]; read-out: % Inhibition 1): 7%
- inhibition (off-target kinases [2]; read-out: % Inhibition 2): 9%
- inhibition (off-target kinases [2]; read-out: % Inhibition Avg): 8%
- inhibition (off-target kinases [3]; MAP2K6 (MKK6), LanthaScreen Binding, read-out: % Inhibition 2): 4%
- inhibition (off-target kinases [3]; MAP2K6 (MKK6), LanthaScreen Binding, read-out: % Inhibition Avg): 1%
- inhibition (off-target kinases [3]; MAP2K6 (MKK6), ZLYTE, ATP 100, read-out: % Inhibition 1): 0%
- inhibition (off-target kinases [3]; MAP2K6 (MKK6), ZLYTE, ATP 100, read-out: % Inhibition 2): 19%
- inhibition (off-target kinases [3]; MAP2K6 (MKK6), ZLYTE, ATP 100, read-out: % Inhibition Avg): 9%
- inhibition (off-target kinases [3]; read-out: % Inhibition 1): -2%
- inhibition (off-target kinases [4]; read-out: % Inhibition 1): 83%
- inhibition (off-target kinases [4]; read-out: % Inhibition 2): 83%
- inhibition (off-target kinases [4]; read-out: % Inhibition Avg): 83%
- inhibition (off-target kinases [5]; read-out: % Inhibition 1): -1%
- inhibition (off-target kinases [5]; read-out: % Inhibition 2): -5%
- inhibition (off-target kinases [5]; read-out: % Inhibition Avg): -3%
- inhibition (off-target kinases [6]; read-out: % Inhibition 1): 66%
- inhibition (off-target kinases [6]; read-out: % Inhibition 2): 70%
- inhibition (off-target kinases [6]; read-out: % Inhibition Avg): 68%
